Test system: bacterial colonies
Test: Validation of the rapid test strip on bacterial colonies sensitive or resistant to third-generation cephalosporins (Table 12)
Type: biochemical
Parameters: key: A signal on the TL is considered as “P”; An absence of signal on the TL is defined as “N”
Method: In order to validate the test strip on bacterial colonies for its clinical use, […].
In order to carry out these tests, all of the solutions below have been prepared in the buffer strip having, for composition: 0.1 M pH 8 Tris buffer/HCL+0.15 M NaCl+0.5% Tween 20+1% chaps+0.01% sodium azide. […] The tracer is in dried format on the CP. […] A CL was produced. It consists of anti-tracer antibodies. The migration is carried out in a plastic cassette.
A bacterial colony was sampled from an URI-4 agar with a 1 μl ose, then deposited in the previously prepared Eppendorf tube. The tube was vortexed for five seconds, then incubated for 30 minutes at ambient temperature. Once the incubation was finished, 100 μl was sampled and deposited on the test strip. The reading is carried out after 10 minutes migration. A signal on the TL is considered as “P”. An absence of signal on the TL is defined as “N”.

In the case of `CO/N=C(\C(=O)N[C@@H]1C(=O)N2C(C(=O)O)=C(COC(C)=O)CS[C@H]12)c1csc(N)n1` [non-hydrolysed cefotaxime, cefotaxime], the “results of the test” value (C. freundii, CMY-135 + MOX-9 + OXA-372 + OXA-10, isolate number 1, strains capable of hydrolysing cefotaxime) is reported as “P”, the “results of the test” value (C. freundii, CMY-150 + LMB-1, isolate number 1, strains capable of hydrolysing cefotaxime) is reported as “P” and the “results of the test” value (C. freundii, CTX-M + VIM + OXA-48, isolate number 1, strains capable of hydrolysing cefotaxime) is reported as “P”. The “results of the test” value (C. freundii, CTX-M-1, isolate number 1, strains capable of hydrolysing cefotaxime) was “P”, the “results of the test” value (C. freundii, CTX-M-15 + TEM-1 + CMY-48 + OXA-48 like, isolate number 1, strains capable of hydrolysing cefotaxime) was “P” and the “results of the test” value (C. freundii, CTX-M-15, isolate number 1, strains capable of hydrolysing cefotaxime) was “P”. For the same molecule, the “results of the test” value (C. freundii, N/A, isolate number 1, strains not capable of hydrolysing cefotaxime) was “N”, the “results of the test” value (C. freundii, SHV-12 + TEM-1 + OXA-48, isolate number 1, strains capable of hydrolysing cefotaxime) was “P” and the “results of the test” value (C. freundii, SHV-12, isolate number 1, strains capable of hydrolysing cefotaxime) was “P”. The “results of the test” value (C. freundii, TEM-1 + KPC-2, isolate number 1, strains capable of hydrolysing cefotaxime) was “P”, the “results of the test” value (C. freundii, TEM-1 + VIM-2 + OXA-9 + OXA-10, isolate number 1, strains capable of hydrolysing cefotaxime) was “P” and the “results of the test” value (C. freundii, TEM-1 + VIM-2, isolate number 1, strains capable of hydrolysing cefotaxime) was “P”. For the same molecule, the “results of the test” value (C. freundii, TEM-3 + Overexpressed AmpC, isolate number 2, strains capable of hydrolysing cefotaxime) was “P”, the “results of the test” value (C. koserii, CTX-M-1, isolate number 1, strains capable of hydrolysing cefotaxime) was “P” and the “results of the test” value (C. koserii, TEM-1 + OXA-48, isolate number 1, strains capable of hydrolysing cefotaxime) was “P”. The “results of the test” value (E. asburiae, IMI-2, isolate number 2, strains not capable of hydrolysing cefotaxime) was “N”, the “results of the test” value (E. asburiae, IMI-17, isolate number 1, strains not capable of hydrolysing cefotaxime) was “N” and the “results of the test” value (E. cloacae, CTX-M-9, isolate number 1, strains capable of hydrolysing cefotaxime) was “P”. For the same molecule, the “results of the test” value (E. cloacae, FRI-1, isolate number 1, strains capable of hydrolysing cefotaxime) was “P”, the “results of the test” value (E. cloacae, GES-6, isolate number 1, strains capable of hydrolysing cefotaxime) was “P” and the “results of the test” value (E. cloacae, GIM-1, isolate number 1, strains capable of hydrolysing cefotaxime) was “P”. For the same molecule, the “results of the test” value (E. cloacae, IMI-1, isolate number 1, strains not capable of hydrolysing cefotaxime) was “N”, the “results of the test” value (E. cloacae, IMI-3 + Overexpressed AmpC, isolate number 1, strains capable of hydrolysing cefotaxime) was “P” and the “results of the test” value (E. cloacae, N/A, isolate number 2, strains not capable of hydrolysing cefotaxime) was “N”. The “results of the test” value (E. cloacae, Overexpressed AmpC, isolate number 7, strains capable of hydrolysing cefotaxime) was “P”, the “results of the test” value (E. cloacae, TEM-3, isolate number 1, strains capable of hydrolysing cefotaxime) was “P” and the “results of the test” value (E. cloacae, TMB-1, isolate number 1, strains capable of hydrolysing cefotaxime) was “P”. The “results of the test” value (E. coli, CTX-M + NDM-5 + OXA-181, isolate number 1, strains capable of hydrolysing cefotaxime) was “P”, the “results of the test” value (E. coli, CTX-M + SHV + NDM-1 + OXA-48, isolate number 1, strains capable of hydrolysing cefotaxime) was “P” and the “results of the test” value (E. coli, CTX-M-9 + TEM-1 + KPC-2, isolate number 1, strains capable of hydrolysing cefotaxime) was “P”. The “results of the test” value (E. coli, CTX-M-15 + CMY-2 + OXA-204 + OXA-1, isolate number 1, strains capable of hydrolysing cefotaxime) was “P”, the “results of the test” value (E. coli, CTX-M-15 + CMY-4 + OXA-204 + OXA-1, isolate number 1, strains capable of hydrolysing cefotaxime) was “P” and the “results of the test” value (E. coli, CTX-M-15 + CMY-4 + OXA-204, isolate number 1, strains capable of hydrolysing cefotaxime) was “P”. For the same molecule, the “results of the test” value (E. coli, CTX-M-15 + CMY-6 + NDM-4, isolate number 1, strains capable of hydrolysing cefotaxime) was “P”, the “results of the test” value (E. coli, CTX-M-15 + NDM-6 + OXA-1, isolate number 1, strains capable of hydrolysing cefotaxime) was “P” and the “results of the test” value (E. coli, CTX-M-15 + OXA-232 + OXA-1, isolate number 1, strains capable of hydrolysing cefotaxime) was “P”. The “results of the test” value (E. coli, CTX-M-15 + TEM-1 + CMY + NDM-1, isolate number 1, strains capable of hydrolysing cefotaxime) was “P”, the “results of the test” value (E. coli, CTX-M-93, isolate number 1, strains not capable of hydrolysing cefotaxime) was “N” and the “results of the test” value (E. coli, TEM-1 + CMY-16 + NDM-1 + OXA-1 + OXA-10, isolate number 1, strains capable of hydrolysing cefotaxime) was “P”. For the same molecule, the “results of the test” value (E. coli, TEM-1 + NDM-9 + OXA-1, isolate number 1, strains capable of hydrolysing cefotaxime) was “P”, the “results of the test” value (K. oxytoca, CTX-M-15, isolate number 2, strains capable of hydrolysing cefotaxime) was “P” and the “results of the test” value (K. oxytoca, DHA-1 + SHV-75, isolate number 1, strains capable of hydrolysing cefotaxime) was “P”. For the same molecule, the “results of the test” value (K. pneumoniae, CMY-4 + OXA-204, isolate number 1, strains capable of hydrolysing cefotaxime) was “P”, the “results of the test” value (K. pneumoniae, CTX-M + KPC-3, isolate number 1, strains capable of hydrolysing cefotaxime) was “P” and the “results of the test” value (K. pneumoniae, CTX-M + MCR-1, isolate number 2, strains capable of hydrolysing cefotaxime) was “P”. The “results of the test” value (K. pneumoniae, CTX-M + NDM-1 + OXA-232, isolate number 1, strains capable of hydrolysing cefotaxime) was “P”, the “results of the test” value (K. pneumoniae, CTX-M + NDM-4 + KPC-2, isolate number 1, strains capable of hydrolysing cefotaxime) was “P” and the “results of the test” value (K. pneumoniae, CTX-M + NDM-5 + OXA-232, isolate number 1, strains capable of hydrolysing cefotaxime) was “P”. For the same molecule, the “results of the test” value (K. pneumoniae, CTX-M + OXA-370, isolate number 1, strains capable of hydrolysing cefotaxime) was “P”, the “results of the test” value (K. pneumoniae, CTX-M + OXA-519, isolate number 1, strains capable of hydrolysing cefotaxime) was “P” and the “results of the test” value (K. pneumoniae, CTX-M + SHV-11 + TEM-1 + OXA-162, isolate number 1, strains capable of hydrolysing cefotaxime) was “P”. The “results of the test” value (K. pneumoniae, CTX-M + SHV-12 + GES-5, isolate number 1, strains capable of hydrolysing cefotaxime) was “P”, the “results of the test” value (K. pneumoniae, CTX-M-2, isolate number 1, strains capable of hydrolysing cefotaxime) was “P” and the “results of the test” value (K. pneumoniae, CTX-M-3 + SHV-1 + TEM-1 + VIM-19, isolate number 1, strains capable of hydrolysing cefotaxime) was “P”. The “results of the test” value (K. pneumoniae, CTX-M-3, isolate number 1, strains capable of hydrolysing cefotaxime) was “P”, the “results of the test” value (K. pneumoniae, CTX-M-8, isolate number 1, strains capable of hydrolysing cefotaxime) was “P” and the “results of the test” value (K. pneumoniae, CTX-M-14 + SHV-11 + TEM-1, isolate number 1, strains capable of hydrolysing cefotaxime) was “P”. The “results of the test” value (K. pneumoniae, CTX-M-15 + SHV-1 + TEM-1 + OXA-232 + OXA-1, isolate number 1, strains capable of hydrolysing cefotaxime) was “P”, the “results of the test” value (K. pneumoniae, CTX-M-15 + SHV-1 + TEM-1, isolate number 1, strains capable of hydrolysing cefotaxime) was “P” and the “results of the test” value (K. pneumoniae, CTX-M-15 + SHV-1, isolate number 1, strains capable of hydrolysing cefotaxime) was “P”. For the same molecule, the “results of the test” value (K. pneumoniae, CTX-M-15 + SHV-11 + TEM-1 + NDM-1 + OXA-1 + OXA-181, isolate number 1, strains capable of hydrolysing cefotaxime) was “P”, the “results of the test” value (K. pneumoniae, CTX-M-15 + SHV-11 + TEM-1 + NDM-1 + OXA-1, isolate number 1, strains capable of hydrolysing cefotaxime) was “P” and the “results of the test” value (K. pneumoniae, CTX-M-15 + SHV-11, isolate number 1, strains capable of hydrolysing cefotaxime) was “P”. For the same molecule, the “results of the test” value (K. pneumoniae, CTX-M-15 + SHV-27 + TEM-1 + NDM-1 + OXA-1 + OXA-181, isolate number 1, strains capable of hydrolysing cefotaxime) was “P”, the “results of the test” value (K. pneumoniae, CTX-M-15 + SHV-28 + TEM-1 + CMY + OXA-204, isolate number 1, strains capable of hydrolysing cefotaxime) was “P” and the “results of the test” value (K. pneumoniae, CTX-M-15 + SHV-99 + TEM-1, isolate number 1, strains capable of hydrolysing cefotaxime) was “P”. For the same molecule, the “results of the test” value (K. pneumoniae, CTX-M-15 + TEM-1 + OXA-48, isolate number 1, strains capable of hydrolysing cefotaxime) was “P”, the “results of the test” value (K. pneumoniae, CTX-M-15 + TEM, isolate number 1, strains capable of hydrolysing cefotaxime) was “P” and the “results of the test” value (K. pneumoniae, CTX-M-15, isolate number 1, strains capable of hydrolysing cefotaxime) was “P”. For the same molecule, the “results of the test” value (K. pneumoniae, CTX-M-18, isolate number 1, strains capable of hydrolysing cefotaxime) was “P”, the “results of the test” value (K. pneumoniae, CTX-M-19, isolate number 1, strains capable of hydrolysing cefotaxime) was “P” and the “results of the test” value (K. pneumoniae, DHA-2, isolate number 1, strains capable of hydrolysing cefotaxime) was “P”. For the same molecule, the “results of the test” value (K. pneumoniae, GES-1, isolate number 1, strains capable of hydrolysing cefotaxime) was “P”, the “results of the test” value (K. pneumoniae, IMP-8, isolate number 1, strains capable of hydrolysing cefotaxime) was “P” and the “results of the test” value (K. pneumoniae, KPC + VIM, isolate number 1, strains capable of hydrolysing cefotaxime) was “P”. The “results of the test” value (K. pneumoniae, KPC-3, isolate number 1, strains capable of hydrolysing cefotaxime) was “P”, the “results of the test” value (K. pneumoniae, KPC-4 + NDM-7, isolate number 1, strains capable of hydrolysing cefotaxime) was “P” and the “results of the test” value (K. pneumoniae, MCR-1 + SHV-2 + SHV-106 + mgrB truncated in orf by IS5, isolate number 1, strains capable of hydrolysing cefotaxime) was “P”. For the same molecule, the “results of the test” value (K. pneumoniae, NDM-1, isolate number 1, strains capable of hydrolysing cefotaxime) was “P”, the “results of the test” value (K. pneumoniae, NDM-5 + VIM-1 + OXA-181, isolate number 1, strains capable of hydrolysing cefotaxime) was “P” and the “results of the test” value (K. pneumoniae, OXA-48, isolate number 1, strains capable of hydrolysing cefotaxime) was “P”. For the same molecule, the “results of the test” value (K. pneumoniae, OXA-163, isolate number 2, strains capable of hydrolysing cefotaxime) was “P”, the “results of the test” value (K. pneumoniae, OXA-517, isolate number 1, strains capable of hydrolysing cefotaxime) was “P” and the “results of the test” value (K. pneumoniae, SHV-2a, isolate number 1, strains capable of hydrolysing cefotaxime) was “P”. The “results of the test” value (K. pneumoniae, SHV-5 + IMP-1, isolate number 1, strains capable of hydrolysing cefotaxime) was “P”, the “results of the test” value (K. pneumoniae, SHV-5 + VIM-1, isolate number 2, strains capable of hydrolysing cefotaxime) was “P” and the “results of the test” value (K. pneumoniae, SHV-11 + OXA-48, isolate number 1, strains capable of hydrolysing cefotaxime) was “P”. For the same molecule, the “results of the test” value (K. pneumoniae, SHV-11 + TEM-1 + KPC-3 + OXA-9, isolate number 1, strains capable of hydrolysing cefotaxime) was “P”, the “results of the test” value (K. pneumoniae, SHV-11, isolate number 1, strains capable of hydrolysing cefotaxime) was “P” and the “results of the test” value (K. pneumoniae, SHV-12 + IMP-8, isolate number 1, strains capable of hydrolysing cefotaxime) was “P”. The “results of the test” value (K. pneumoniae, SHV-36 + TEM-1, isolate number 1, strains capable of hydrolysing cefotaxime) was “P”, the “results of the test” value (K. pneumoniae, SHV-38, isolate number 1, strains capable of hydrolysing cefotaxime) was “P” and the “results of the test” value (K. pneumoniae, TEM-3, isolate number 1, strains capable of hydrolysing cefotaxime) was “P”. For the same molecule, the “results of the test” value (P. mirabilis, ACC-1, isolate number 1, strains capable of hydrolysing cefotaxime) was “P”, the “results of the test” value (P. mirabilis, CTX-M-71, isolate number 1, strains capable of hydrolysing cefotaxime) was “P” and the “results of the test” value (P. mirabilis, N/A, isolate number 1, strains not capable of hydrolysing cefotaxime) was “N”. The “results of the test” value (P. mirabilis, OXA-23, isolate number 1, strains not capable of hydrolysing cefotaxime) was “N”, the “results of the test” value (P. mirabilis, OXA-58, isolate number 1, strains not capable of hydrolysing cefotaxime) was “N” and the “results of the test” value (P. mirabilis, TEM-52, isolate number 1, strains capable of hydrolysing cefotaxime) was “P”. The “results of the test” value (Salmonella spp., N/A, isolate number 1, strains not capable of hydrolysing cefotaxime) was “N”.
